Reference: the NIST ThermoML archive (doi:10.1021/je900660x)
± gives the expanded uncertainty stated by the source.

Columns and labels:
[1] = molar heat capacity at constant pressure; settings: 101.33 kPa, Liquid, Large sample (1 g) DSC
[2] = for mass density / viscosity / thermal conductivity: 101.33 kPa, Liquid; for mass density: Vibrating tube method; for Glass transition temperature: DTA; for thermal conductivity: Hot wire method

Structure (SMILES) | molar heat capacity at constant pressure ([1]; 293.15 K) [J/K/mol] | molar heat capacity at constant pressure ([1]; 298.15 K) [J/K/mol] | molar heat capacity at constant pressure ([1]; 303.15 K) [J/K/mol] | molar heat capacity at constant pressure ([1]; 313.15 K) [J/K/mol] | molar heat capacity at constant pressure ([1]; 323.15 K) [J/K/mol] | molar heat capacity at constant pressure ([1]; 333.15 K) [J/K/mol] | molar heat capacity at constant pressure ([1]; 343.15 K) [J/K/mol] | molar heat capacity at constant pressure ([1]; 353.15 K) [J/K/mol] | molar heat capacity at constant pressure ([1]; 363.15 K) [J/K/mol] | mass density ([2]; 293.15 K) [kg/m3] | viscosity ([2]; 298.15 K) [mPa·s] | mass density ([2]; 298.15 K) [kg/m3] | viscosity ([2]; 303.15 K) [mPa·s] | mass density ([2]; 303.15 K) [kg/m3] | viscosity ([2]; 313.15 K) [mPa·s] | mass density ([2]; 313.15 K) [kg/m3] | viscosity ([2]; 323.15 K) [mPa·s] | mass density ([2]; 323.15 K) [kg/m3] | viscosity ([2]; 333.15 K) [mPa·s] | mass density ([2]; 333.15 K) [kg/m3] | other results
CCCC[N+](C)(CCCC)CCCC.NCCS(=O)(=O)[O-] [N,N-dibutyl-N-methyl-1-butanaminium 2-aminoethanesulfonate] | 822.3 ± 83 | 826.9 ± 84 | 831.7 ± 84 | 842.5 ± 85 | 853.2 ± 86 | 863.2 ± 87 | 872.6 ± 88 | 882.4 ± 89 | 891.5 ± 90 | 1054.1 ± 6 | 6674 ± 2200 | 1051.1 ± 6 | 3965 ± 1200 | 1048.1 ± 5.9 | 1600 ± 380 | 1041.6 ± 5.9 | 716 ± 130 | 1035.7 ± 5.8 | 357.5 ± 48 | 1029.8 ± 5.7 | viscosity ([2]; 343.15 K): 193.4 ± 18 mPa·s; mass density ([2]; 343.15 K): 1023.9 ± 5.7 kg/m3; viscosity ([2]; 353.15 K): 108.2 ± 6.3 mPa·s; mass density ([2]; 353.15 K): 1018 ± 5.6 kg/m3; viscosity ([2]; 363.15 K): 66.8 ± 2.1 mPa·s; mass density ([2]; 363.15 K): 1012.1 ± 5.5 kg/m3; Glass transition temperature [2]: -54.23 ± 4 °C
CCCC[N+](C)(CCCC)CCCC.NCCCC[C@H](N)C(=O)[O-] [N,N-dibutyl-N-methyl-1-butanaminium L-lysinate] | 817.3 ± 82 | 823.8 ± 83 | 830.8 ± 84 | 845.6 ± 85 | 861.2 ± 87 | 877.7 ± 89 | 893.3 ± 90 | 909.5 ± 92 | 925.1 ± 93 | 982.9 ± 5.2 | 2593 ± 690 | 979.7 ± 5.2 | 1679 ± 400 | 976.7 ± 5.2 | 741.4 ± 140 | 970.7 ± 5.1 | 368.6 ± 51 | 964.7 ± 5 | 200.2 ± 20 | 958.6 ± 5 | thermal conductivity ([2]; 298.15 K): 0.171 ± 0.01 W/m/K; thermal conductivity ([2]; 303.15 K): 0.17 ± 0.01 W/m/K; thermal conductivity ([2]; 313.15 K): 0.169 ± 0.01 W/m/K; thermal conductivity ([2]; 323.15 K): 0.168 ± 0.01 W/m/K; thermal conductivity ([2]; 333.15 K): 0.167 ± 0.01 W/m/K; viscosity ([2]; 343.15 K): 112.9 ± 6.9 mPa·s; thermal conductivity ([2]; 343.15 K): 0.166 ± 0.01 W/m/K; mass density ([2]; 343.15 K): 952.7 ± 4.9 kg/m3; viscosity ([2]; 353.15 K): 68.3 ± 2.3 mPa·s; thermal conductivity ([2]; 353.15 K): 0.165 ± 0.01 W/m/K; mass density ([2]; 353.15 K): 946.8 ± 4.9 kg/m3; viscosity ([2]; 363.15 K): 43.9 ± 1.3 mPa·s; mass density ([2]; 363.15 K): 940.8 ± 4.8 kg/m3; Glass transition temperature [2]: -59.39 ± 4 °C
CCCC[N+](C)(CCCC)CCCC.C[C@@H](O)[C@H](N)C(=O)[O-] [N,N-dibutyl-N-methyl-1-butanaminium L-threoninate] | 748.5 ± 76 | 752.6 ± 76 | 757.1 ± 76 | 766.9 ± 78 | 777.4 ± 78 | 789.2 ± 80 | 801 ± 81 | 811.5 ± 82 | 821.1 ± 83 | 1002.6 ± 5.4 | 8368 ± 2900 | 999.5 ± 5.4 | 4916 ± 1500 | 996.4 ± 5.4 | 1845 ± 450 | 990 ± 5.3 | 791.3 ± 150 | 983.7 ± 5.2 | 377.6 ± 52 | 977.7 ± 5.2 | thermal conductivity ([2]; 298.15 K): 0.16 ± 0.01 W/m/K; thermal conductivity ([2]; 303.15 K): 0.159 ± 0.01 W/m/K; thermal conductivity ([2]; 313.15 K): 0.158 ± 0.01 W/m/K; thermal conductivity ([2]; 323.15 K): 0.157 ± 0.01 W/m/K; thermal conductivity ([2]; 333.15 K): 0.156 ± 0.01 W/m/K; viscosity ([2]; 343.15 K): 200.6 ± 20 mPa·s; thermal conductivity ([2]; 343.15 K): 0.155 ± 0.01 W/m/K; mass density ([2]; 343.15 K): 971.7 ± 5.1 kg/m3; viscosity ([2]; 353.15 K): 110.9 ± 6.7 mPa·s; thermal conductivity ([2]; 353.15 K): 0.154 ± 0.01 W/m/K; mass density ([2]; 353.15 K): 965.7 ± 5 kg/m3; viscosity ([2]; 363.15 K): 66.2 ± 2.1 mPa·s; mass density ([2]; 363.15 K): 959.8 ± 5 kg/m3; Glass transition temperature [2]: -51.94 ± 4 °C
